# Results as given in PubChem BioAssay (NCI).
# Values joined by “and” are separate entries in the source; they are usually repeats but may differ in a detail not shown here. Identical values can stand only once.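 Grown in 96-well plates, cells were treated for 48 hours with each compound at five concentrations. Insufficient inhibition: endpoint recorded as highest concentration tested. GI50 is the concentration that inhibits growth by half. TGI denotes the concentration required for complete inhibition of growth.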
# Tests used:
# Assay in all cases: growth of human tumour cells (NCI), 48 h
# BT-549 breast = test system: BT-549 breast
# CAKI-1 renal = test system: CAKI-1 renal
# CCRF-CEM leukemia = test system: CCRF-CEM leukemia
# HCT-15 colon = test system: HCT-15 colon
# HL-60(TB) leukemia = test system: HL-60(TB) leukemia
# IGROV1 ovarian = test system: IGROV1 ovarian
# LOX IMVI melanoma = test system: LOX IMVI melanoma
# NCI-H522 lung = test system: NCI-H522 lung
# T-47D breast = test system: T-47D breast
# UO-31 renal = test system: UO-31 renal
Structure (SMILES),GI50 (BT-549 breast) [µM],TGI (BT-549 breast),GI50 (CAKI-1 renal) [µM],TGI (CAKI-1 renal) [µM],GI50 (CCRF-CEM leukemia) [µM],TGI (CCRF-CEM leukemia),GI50 (HCT-15 colon) [µM],TGI (HCT-15 colon),GI50 (HL-60(TB) leukemia) [µM],TGI (HL-60(TB) leukemia),GI50 (IGROV1 ovarian) [µM],TGI (IGROV1 ovarian),GI50 (LOX IMVI melanoma) [µM],TGI (LOX IMVI melanoma),GI50 (NCI-H522 lung) [µM],GI50 (T-47D breast) [µM],TGI (T-47D breast),GI50 (UO-31 renal) [µM],TGI (UO-31 renal),TGI (NCI-H522 lung) [µM]
CCC1=C(CC2NCCc3ccccc32)CC2c3cc(OC)c(OC)cc3CCN2C1 (stereo unspecified),9.07,21.2 µM and 9.89 µM,3.28,15.2,3.81,18.6 µM and 4.53 µM,5.17,30.8 µM and 20.4 µM,2.89,10.7 µM and 5.01 µM,4.39,21.6 µM and 19 µM,4.4,15.5 µM and 5.68 µM,4.22,3.9,16.8 µM and 5.85 µM,4.73,29.7 µM and 3.35 µM,–
CC/C(=C/c1ccc(OC)cc1OC)[N+](=O)[O-],4.15,15.3 µM,2.24,6.55,2.05,7.01 µM,1.87,4.54 µM,2.6,7.93 µM,3.4,11.5 µM,1.31,2.9 µM,1.79,1.72,5.06 µM,1.57,3.09 µM,3.58
CCN(Cc1c(F)cccc1Cl)c1ccc(CO)c(Cl)c1,16.5,31.2 µM,1.2,17.4,16.2,39 µM,10,24.7 µM,13,37.3 µM,–,–,18,33.5 µM,13.8,< 0.0153,0.0496 µM,12.9,26.1 µM,28.5
CCOC(=O)/C=C/c1cccc(F)c1,–,> 100 µM,–,> 100,–,> 100 µM,–,> 100 µM,–,> 100 µM,–,> 100 µM,–,> 100 µM,–,–,> 100 µM,–,> 100 µM,> 100
Nc1cccc2c1C(=O)c1cccc(NC(=O)c3ccccc3)c1C2=O,0.674,33.9 µM,0.229,3.01,0.401,> 100 µM,0.448,> 100 µM,0.292,> 100 µM,0.503,> 81.4 µM,0.565,> 100 µM,0.0655,1.1,> 100 µM,0.474,> 100 µM,0.618
CN1CCN(CCCOc2cc(O)c3c(=O)cc(-c4ccccc4)oc3c2)CC1,21.1,46 µM,15.1,33.4,23.6,56.7 µM,4.6,16.3 µM,19.1,39.5 µM,24.9,95.3 µM,14.1,28.4 µM,21.6,28,79.2 µM,16.9,47.3 µM,47
O=c1[nH]c(=O)n(C2CC(O)C(CO)O2)cc1C(F)(F)F (stereo unspecified),4.61,> 100 µM,1.79,> 100,0.557,> 100 µM,46,> 100 µM,0.409,–,9.02,> 100 µM,0.936,> 100 µM,18.3,3.34,> 100 µM,1.75,> 100 µM,> 100
